Tested on: Escherichia coli ATCC 25922
Experiment: ASTM E3160-18 antibacterial efficacy of treated fabric, with ASTM E3162-18 wash durability
Assay type: cell-based
Conditions: cotton, use level 250-2000 ppm by row; for AM Activity after 25 Real Time Washes: after 25 real time washes (ASTM-E3162-18); for Initial AM Activity: before washing
Method: (Procedure 1A) Exhaust Method: Alpha-1,6-glucan ether compounds (e.g., as prepared in Materials/Methods) were exhaust-applied using Werner Mathis AG BFA-12 exhaust equipment. Individual formulation baths comprising desired concentrations of a glucan ether polymer in water were prepared. Each fabric sample (20 g) was loosely folded horizontally and placed into a test canister, followed by addition of 200 ml of a bath solution. The canisters were then closed and secured to the rotating wheel of the equipment. The rotation speed of the wheel was set to 35 rpm, switching from clockwise to counterclockwise modes at 1-minute intervals. In each case, the instrument, with the samples already loaded, would first heat up at a selected rate of heating until the target temperature was reached, maintaining the temperature for preset durations, before cooling down to initial temperature. Once the exhaustion process was complete, all the fabric samples were removed from the exhaust canisters and passed through padding equipment (Fanyuan Instruments, DW2010A) set to a pressure of 8.4 kg to squeeze out the excess water. Lastly, each sample was dried in a MATHIS lab dryer LTE for 5 minutes at 120° C.
(Procedure 1B) Padding Method: Alpha-1,6-glucan ether compounds (e.g., as prepared in Materials/Methods) were also applied to fabric samples via a padding process using a MATHIS HF or Fanyuan Instruments (DW2010A) padder. Dry fabric was submerged into a bath containing an aqueous solution of glucan ether compound at a desired concentration in water and passed through padder rollers to squeeze out (applied pressure equaled 3.1 bar) excess treatment solution. Each fabric sample was dried and cured in a MATHIS lab dryer LTE for 5 minutes at 120° C. Each glucan solution was prepared to account for water weight pick-up by each fabric type and their exhaust potential.
(Procedure 2A) ASTM E3160-18: In some cases, an alpha-1,6-glucan ether compound herein was considered to be antimicrobially efficient if it imparted a >3 log10 reduction of bacterial growth as tested by the American Society for Testing and Materials (ASTM) method E3160-18 (Quantitative Evaluation of the Antibacterial Properties of Porous Antibacterial Treated Articles, incorporated herein by reference) at a use level ≤5000 ppm. The ASTM E3160 method was performed as follows: The day before the test, a culture of Escherichia coli of the American Type Culture Collection (ATCC) 25922 was inoculated by transferring a single colony from tryptic soy agar (TSA), using a sterile loop, into a tryptic soy broth (TSB). On the day of the experiment (next day), each fabric sample (treated with an alpha-1,6-glucan ether herein or a control compound, e.g., prepared by Procedure 1A above) was cut into three 0.40-g swatches (about 1×1 inch). Each fabric swatch was placed into a 50-mL sterile specimen cup. On the same day, bacterial/working inoculum was prepared by diluting the overnight culture of E. coli into phosphate buffer supplemented with TSB (1:500) and 0.05% TRITON X-100 to obtain a bacterial concentration that was between 2.5×10^5 colony forming units (CFU)/mL and 1.0×10^6 CFU/mL, with a target concentration of 6×10^5 CFU/mL. All samples were inoculated by applying 0.2 mL of working inoculum in several aliquots directly onto the fabric surface, and were allowed to incubate for 24 hours at 37° C. Samples were neutralized with 10 mL Dey-Engley (D-E) neutralizing buffer and enumerated in triplicate in 96-well plates containing 180 μL TSB by transferring 20 μL of neutralized sample to the top well of the 96-well plates and serially diluting 20 μL down the plate.

| SMILES | AM Activity after 25 Real Time Washes [log10 log10 reduction] | Initial AM Activity [log10 log10 reduction] |
| --- | --- | --- |
| CCCCCCCCCCCCCCCCCC[N+](C)(C)CCC[Si](O)(O)O.[Cl-] [Comparative 3, 3-(trihydroxysilyl)propyldimethyl-octadecyl ammonium chloride] | <1 | 5 |
| CCCCCCCCCCCC(=O)N[C@@H](CCCNC(=N)N)C(=O)OCC [Comparative 5, Lauroyl arginine ethyl ester] | <1 | 5 |
| CCCCCCCCCCCC[N+](C)(C)CC(O)CCl.[Cl-] (centres unmarked) [Comparative 6, 3-chloro-2-hydroxypropyl dodecyldimethylammonium chloride] | <2 | 5 |
| CCCCCCCCCCCC[N+](C)(C)C.[Cl-] [Comparative 7, dodecyltrimethylammonium chloride] | <1 | 5 |

— US20260150837A1, “GLUCAN DERIVATIVES FOR MICROBIAL CONTROL” (Nutrition & Biosciences USA 4, Inc., priority 2021, published 2026)
